Experimental data: BindingDB's records for doi:10.3109/14756366.2011.651465 (Dumlupinar University, 2013)

How the values were obtained:
Carbonic anhydrase 1 = Carbonic anhydrase 1 (Homo sapiens, UniProt P00915); experiment: CA Activity Assay; conditions: pH 7.4; 25 °C
Procedure: (§1) CA activity was assayed in inhibition studies by following the change in absorbance at 348 nm of 4-nitrophenylacetate (NPA) to 4-nitrophenylate ion over a period of 3 min at 25°C using a spectrophotometer according to the method described by Verpoorte et al. [Verpoorte et al., J. Biol. Chem., 242:4221-4229] The enzymatic reaction, in a total volume of 1 mL, contained 50 mM Tris-SO4 buffer (pH = 7.4), 3 mM 4-nitrophenylacetate and enzyme solution. A reference measurement was done by using the same cuvette without enzyme solution. The inhibitory effects of some synthesized sulfonamide derivatives on CA enzyme activity purified from human erythrocyte were tested on three samples at each concentration used.

Carbonic anhydrase 2 = Carbonic anhydrase 2 (Homo sapiens, UniProt P00918); experiment: CA Activity Assay; conditions: pH 7.4; 25 °C
Procedure: as §1

Sequence of Carbonic anhydrase 1 (P00915 whole entry): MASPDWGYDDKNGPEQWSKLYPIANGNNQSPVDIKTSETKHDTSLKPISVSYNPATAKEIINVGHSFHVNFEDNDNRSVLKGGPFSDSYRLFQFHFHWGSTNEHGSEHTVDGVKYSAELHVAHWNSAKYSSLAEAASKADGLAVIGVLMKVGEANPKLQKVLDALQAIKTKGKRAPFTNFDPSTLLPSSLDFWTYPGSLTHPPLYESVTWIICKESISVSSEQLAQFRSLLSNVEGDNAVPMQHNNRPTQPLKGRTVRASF

| Structure (SMILES) | Ki (Carbonic anhydrase 1) [nM] | Ki (Carbonic anhydrase 2) [nM] |
| --- | --- | --- |
| CC(=O)C(=NNc1cccc(-n2nc(C(=O)Nc3ccc(S(N)(=O)=O)cc3)c(C(=O)c3ccccc3)c2-c2ccccc2)c1)C(C)=O [4-benzoyl-1-(3-((2-hydroxy-4-oxopent-2-en-3-yl)diazenyl)phenyl)-5-phenyl-N-(4-sulfamoylphenyl)-1H-pyrazole-3-carboxamide (5)] | 160 | 595 |
| CC(=O)/C(=N\Nc1cccc(-n2nc(C(=O)Nc3ccc(S(N)(=O)=O)cc3)c(C(=O)c3ccccc3)c2-c2ccccc2)c1)C(=O)c1ccccc1 [4-benzoyl-1-(3-((3-hydroxy-1-oxo-1-phenylbut-2-en-2-yl)diazenyl)phenyl)-5-phenyl-N-(4-sulfamoylphenyl)-1Hpyrazole-3-carboxamide (7)] | 521 | 166 |
| NS(=O)(=O)c1ccc(NC(=O)c2nn(-c3cccc(NN=C(C(=O)c4ccccc4)C(=O)c4ccccc4)c3)c(-c3ccccc3)c2C(=O)c2ccccc2)cc1 [4-benzoyl-1-(3-(2-(1,3-dioxo-1,3-diphenylpropan-2-ylidene)hydrazinyl)phenyl)-5-phenyl-N-(4-sulfamoylphenyl)-1H-pyrazole-3-carboxamide (6)] | 4100 | 1940 |
| NS(=O)(=O)c1ccc(NC(=O)c2nn(-c3cccc([N+](=O)[O-])c3)c(-c3ccccc3)c2C(=O)c2ccccc2)cc1 [4-benzoyl-1-(3-nitrophenyl)-5-phenyl-N-(4-sulfamoylphenyl)-1H-pyrazole-3-carboxamide (2)] | 215 | 337 |
| CCOC(=O)/C(=N/Nc1cccc(-n2nc(C(=O)Nc3ccc(S(N)(=O)=O)cc3)c(C(=O)c3ccccc3)c2-c2ccccc2)c1)C(=O)c1ccccc1 [Ethyl-2-(2-(3-(4-benzoyl-5-phenyl-3-(4-sulfamoylphenylcarbamoyl)-1H-pyrazol-1-(phenyl)hydrazono)-3-oxo-3-phenylpropanoate (8)] | 2900 | 8240 |

Compounds with a lower Ki (Carbonic anhydrase 1), results first:

| Ki (Carbonic anhydrase 1) [nM] | Ki (Carbonic anhydrase 2) [nM] | Structure (SMILES) |
| --- | --- | --- |
| 129 | 64 | [N-]=[N+]=Nc1cccc(-n2nc(C(=O)Nc3ccc(S(N)(=O)=O)cc3)c(C(=O)c3ccccc3)c2-c2ccccc2)c1 [1-(3-azidophenyl)-4-benzoyl-5-phenyl-N-(4-sulfamoylphenyl)-1H-pyrazole-3-carboxamide (9)] |
| 108 | 55 | Nc1cccc(-n2nc(C(=O)Nc3ccc(S(N)(=O)=O)cc3)c(C(=O)c3ccccc3)c2-c2ccccc2)c1 [1-(3-aminophenyl)-4-benzoyl-5-phenyl-N-(4-sulfamoylphenyl)-1H-pyrazole-3-carboxamide (3)] |
